For one test, the target named is T1, Human M3 receptor (Homo sapiens, UniProt P20309).
T1 construct: purchased Perkin Elmer
The experiment in a line: biochemical. The conditions noted are these: read-out: M3 Range. The test is classed as binding.

Another test addresses T2, Human β2 adrenoceptor (Homo sapiens, UniProt P07550).
T2 construct: purchased Perkin Elmer
The experiment in a line: β2 adrenoceptor radioligand binding assay. The procedure:
β2 Adrenoceptor Radioligand Binding Assay
Human β2 adrenoceptor membranes (7.5 ug/well) from Perkin Elmer were incubated with 0.3 nM 125-I Cyanopindolol with or without test compounds, or a saturating concentration of s-propranolol (2 μM) for the determination of non-specific binding. The assay was carried out in 96-well polypropylene plates in a volume of 200 ul. The assay buffer used was 25 mM HEPES, 0.5% BSA (w/v), 1 mM EDTA, 0.02% ascorbic acid (v/v), (pH 7.4). The final assay concentration of DMSO was 0.5% (v/v). The plates were sealed and incubated for 1 h at room temperature on an orbital shaker (slow speed). Membranes were harvested onto 96-well unifilter GF/C filter plates pre-treated with 0.5% polyethyleneimine (v/v), using a filter manifold, washed six times with 200 ul of wash buffer containing 10 mM HEPES and 500 mM NaCl. The plates were dried before addition of 50 μl of microscint-0, sealed then read in a Trilux Microbeta scintillation counter. IC50 values are determined from competition curves using a non-linear curve fitting program. Ki values were calculated from IC50 values by the Cheng and Prusoff equation.

Where only a bound is given, the exact number is not on record here.

T2 sequence (P07550 whole entry): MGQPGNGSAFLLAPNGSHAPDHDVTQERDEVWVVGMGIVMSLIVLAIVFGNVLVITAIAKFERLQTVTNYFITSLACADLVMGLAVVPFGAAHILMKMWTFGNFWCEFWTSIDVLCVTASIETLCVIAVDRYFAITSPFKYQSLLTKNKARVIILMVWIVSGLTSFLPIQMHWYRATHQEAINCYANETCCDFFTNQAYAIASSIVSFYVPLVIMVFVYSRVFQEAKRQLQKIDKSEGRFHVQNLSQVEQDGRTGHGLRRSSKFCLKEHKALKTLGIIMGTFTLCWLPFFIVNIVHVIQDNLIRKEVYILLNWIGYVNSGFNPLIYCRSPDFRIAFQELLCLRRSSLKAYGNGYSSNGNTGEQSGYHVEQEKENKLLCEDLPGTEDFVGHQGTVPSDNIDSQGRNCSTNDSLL
T1 sequence (P20309 whole entry): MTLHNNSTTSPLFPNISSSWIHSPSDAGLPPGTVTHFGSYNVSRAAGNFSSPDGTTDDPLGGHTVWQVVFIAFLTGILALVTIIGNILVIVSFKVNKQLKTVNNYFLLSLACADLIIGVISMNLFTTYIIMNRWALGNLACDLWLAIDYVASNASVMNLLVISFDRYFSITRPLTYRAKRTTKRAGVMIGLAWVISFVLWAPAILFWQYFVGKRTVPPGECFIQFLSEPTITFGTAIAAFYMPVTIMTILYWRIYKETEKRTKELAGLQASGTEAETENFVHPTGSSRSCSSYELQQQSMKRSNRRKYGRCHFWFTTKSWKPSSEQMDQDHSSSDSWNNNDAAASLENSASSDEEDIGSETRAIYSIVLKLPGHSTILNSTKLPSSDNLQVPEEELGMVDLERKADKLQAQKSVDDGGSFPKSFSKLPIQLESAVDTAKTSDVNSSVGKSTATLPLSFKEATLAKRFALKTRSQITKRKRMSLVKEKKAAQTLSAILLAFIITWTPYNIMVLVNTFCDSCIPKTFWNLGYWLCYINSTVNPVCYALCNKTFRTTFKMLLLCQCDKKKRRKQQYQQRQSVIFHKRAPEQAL

Turning to `O=C(NCc1ccc(-c2cccc([C@](O)(C(=O)OCC3CCN(Cc4ccccc4)CC3)c3ccccc3)c2)s1)c1ccc(CNC[C@H](O)c2ccc(O)c3[nH]c(=O)ccc23)cc1` [Compound 1A, (1-Benzylpiperidin-4-yl)methyl (S)-2-hydroxy-2-(3-(5-((4-((((R)-2-hydroxy-2-(8-hydroxy-2-oxo-1,2-dihydroquinolin-5-yl)ethyl)amino)methyl)benzamido)-methyl)thiophen-2-yl)phenyl)-2-phenylacetate], the IC50 at Human M3 receptor was 0.3 to 3 nM; on Human β2 adrenoceptor, below 0.3 nM.
The corresponding values for `COc1ccc(CN2CCC(COC(=O)[C@](O)(c3ccccc3)c3cccc(-c4ccc(CNC(=O)c5ccc(CNC[C@H](O)c6ccc(O)c7[nH]c(=O)ccc67)cc5)s4)c3)CC2)cc1` [Compound 2A, (1-(4-Methoxybenzyl)piperidin-4-yl)methyl (S)-2-hydroxy-2-(3-(5-((4-((((R)-2-hydroxy-2-(8-hydroxy-2-oxo-1,2-dihydroquinolin-5-yl)ethyl)amino)-methyl)benzamido)methyl)thiophen-2-yl)phenyl)-2-phenylacetate] are 0.3 to 3 nM and below 0.3 nM.
The corresponding values for `Cc1cc(C(=O)NCc2ccc(-c3cccc([C@](O)(C(=O)OCC4CCN(Cc5ccccc5)CC4)c4ccccc4)c3)s2)ccc1CNC[C@H](O)c1ccc(O)c2[nH]c(=O)ccc12` [Compound 1S, (1-Benzylpiperidin-4-yl)methyl (S)-2-hydroxy-2-(3-(5-((4-((((R)-2-hydroxy-2-(8-hydroxy-2-oxo-1,2-dihydroquinolin-5-yl)ethyl)amino)methyl)-3-methylbenzamido)methyl)thiophen-2-yl)phenyl)-2-phenylacetate] are 0.3 to 3 nM and below 0.3 nM.
The corresponding values for `O=C(c1cccc(-c2cccc([C@](O)(C(=O)OCC3CCN(Cc4ccccc4)CC3)c3ccccc3)c2)n1)N1CCC(CNC[C@H](O)c2ccc(O)c3[nH]c(=O)ccc23)CC1` [Compound 6F, (1-Benzylpiperidin-4-yl)methyl (S)-2-hydroxy-2-(3-(6-(4-((((R)-2-hydroxy-2-(8-hydroxy-2-oxo-1,2-dihydroquinolin-5-yl)ethyl)amino)methyl)piperidine-1-carbonyl)pyridin-2-yl)phenyl)-2-phenylacetate] are 0.3 to 3 nM and 0.3 to 3 nM.
Turning to `O=C(NCc1csc(-c2cccc([C@](O)(C(=O)OCC3CCN(Cc4ccccc4)CC3)c3ccccc3)c2)c1)c1ccc(CNC[C@H](O)c2ccc(O)c3[nH]c(=O)ccc23)cc1` [Compound 5A, (1-Benzylpiperidin-4-yl)methyl (S)-2-hydroxy-2-(3-(4-((4-((((R)-2-hydroxy-2-(8-hydroxy-2-oxo-1,2-dihydroquinolin-5-yl)ethyl)amino)methyl)-benzamido)methyl)thiophen-2-yl)phenyl)-2-phenylacetate], the IC50 was 0.3 to 3 nM at Human M3 receptor and below 0.3 nM on Human β2 adrenoceptor.
The corresponding values for `COc1cc(C(=O)N2CCC(c3cccc([C@](O)(C(=O)OCC4CCN(Cc5ccccc5)CC4)c4ccccc4)c3)CC2)ccc1CNC[C@H](O)c1ccc(O)c2[nH]c(=O)ccc12` [Compound 7A, (1-Benzylpiperidin-4-yl)methyl (S)-2-hydroxy-2-(3-(1-(4-((((R)-2-hydroxy-2-(8-hydroxy-2-oxo-1,2-dihydroquinolin-5-yl)ethyl)amino)methyl)-3-methoxybenzoyl)piperidin-4-yl)phenyl)-2-phenylacetate] are 0.3 to 3 nM and 0.3 to 3 nM.
The corresponding values for `COc1cc(C(=O)NCc2ccnc(-c3cccc([C@](O)(C(=O)OCC4CCN(Cc5ccccc5)CC4)c4ccccc4)c3)n2)ccc1CNC[C@H](O)c1ccc(O)c2[nH]c(=O)ccc12` [Compound 4A, (1-Benzylpiperidin-4-yl)methyl (S)-2-hydroxy-2-(3-(4-((4-((((R)-2-hydroxy-2-(8-hydroxy-2-oxo-1,2-dihydroquinolin-5-yl)ethyl)amino)methyl)-3-methoxybenzamido)methyl)pyrimidin-2-yl)phenyl)-2-phenylacetate] are 0.3 to 3 nM and below 0.3 nM.
The corresponding values for `COc1cc(CNC[C@H](O)c2ccc(O)c3[nH]c(=O)ccc23)ccc1C(=O)NCC(=O)N1CC=C(c2cccc([C@](O)(C(=O)OCC3CCN(Cc4ccccc4)CC3)c3ccccc3)c2)CC1` [Compound 8A, (1-Benzylpiperidin-4-yl)methyl (S)-2-hydroxy-2-(3-(1-((4-((((R)-2-hydroxy-2-(8-hydroxy-2-oxo-1,2-dihydroquinolin-5-yl)ethyl)amino)methyl)-2-methoxybenzoyl)glycyl)-1,2,3,6-tetrahydropyridin-4-yl)phenyl)-2-phenylacetate] are 0.3 to 3 nM and below 0.3 nM.
For the compound `COc1cc(CNC[C@H](O)c2ccc(O)c3[nH]c(=O)ccc23)ccc1C(=O)NCc1ccc(-c2cccc([C@](O)(C(=O)OCC3CCN(Cc4ccccc4)CC3)c3ccccc3)c2)s1` [Compound 1C, (1-Benzylpiperidin-4-yl)methyl (S)-2-hydroxy-2-(3-(5-((4-((((R)-2-hydroxy-2-(8-hydroxy-2-oxo-1,2-dihydroquinolin-5-yl)ethyl)amino)methyl)-2-methoxybenzamido)methyl)thiophen-2-yl)phenyl)-2-phenylacetate], the IC50 at Human M3 receptor and on Human β2 adrenoceptor was 0.3 to 3 nM in each case.
For `O=C(c1ccnc(-c2cccc([C@](O)(C(=O)OCC3CCN(Cc4ccccc4)CC3)c3ccccc3)c2)c1)N1CCC(CNC[C@H](O)c2ccc(O)c3[nH]c(=O)ccc23)CC1` [Compound 6, (1-Benzylpiperidin-4-yl)methyl (S)-2-hydroxy-2-(3-(4-(4-((((R)-2-hydroxy-2-(8-hydroxy-2-oxo-1,2-dihydroquinolin-5-yl)ethyl)amino)methyl)piperidine-1-carbonyl)pyridin-2-yl)phenyl)-2-phenylacetate], the results for the IC50 on Human M3 receptor and at Human β2 adrenoceptor were 0.3 to 3 nM and below 0.3 nM, respectively.
The corresponding values for `O=C(c1ccc(CNC[C@H](O)c2ccc(O)c3[nH]c(=O)ccc23)cc1)N1CC=C(c2ccc([C@](O)(C(=O)OCC3CCN(Cc4ccccc4)CC3)c3ccccc3)cc2)CC1` [Compound 15E, (1-benzylpiperidin-4-yl)methyl (S)-2-hydroxy-2-(4-(1-(4-((((R)-2-hydroxy-2-(8-hydroxy-2-oxo-1,2-dihydroquinolin-5-yl)ethyl)amino)methyl)benzoyl)-1,2,3,6-tetrahydropyridin-4-yl)phenyl)-2-phenylacetate] are 0.3 to 3 nM and below 0.3 nM.
In the case of `CN(CC(=O)N1CC=C(c2cccc([C@](O)(C(=O)OCC3CCN(Cc4ccccc4)CC3)c3ccccc3)c2)CC1)C(=O)c1ccc(CNC[C@H](O)c2ccc(O)c3[nH]c(=O)ccc23)cc1` [Compound 8F, (1-Benzylpiperidin-4-yl)methyl (S)-2-hydroxy-2-(3-(1-(N-(4-((((R)-2-hydroxy-2-(8-hydroxy-2-oxo-1,2-dihydroquinolin-5-yl)ethyl)amino)-methyl)benzoyl)-N-methylglycyl)-1,2,3,6-tetrahydropyridin-4-yl)phenyl)-2-phenylacetate], the IC50 at Human M3 receptor and at Human β2 adrenoceptor was 0.3 to 3 nM each time.
Consider `O=C(NCc1ccc(-c2cccc([C@](O)(C(=O)OCC3CCN(Cc4ccccc4)CC3)c3ccccc3)c2)s1)c1ccc(CCNC[C@H](O)c2ccc(O)c3[nH]c(=O)ccc23)cc1` [Compound 1H, (1-Benzylpiperidin-4-yl)methyl (S)-2-hydroxy-2-(3-(5-((4-(2-(((R)-2-hydroxy-2-(8-hydroxy-2-oxo-1,2-dihydroquinolin-5-yl)ethyl)amino)ethyl)-benzamido)methyl)thiophen-2-yl)phenyl)-2-phenylacetate], for which the IC50 at Human M3 receptor and at Human β2 adrenoceptor was 0.3 to 3 nM in each case.
`CN1CCC(OC(=O)[C@](O)(c2ccccc2)c2cccc(-c3ccc(CNC(=O)c4ccc(CNC[C@H](O)c5ccc(O)c6[nH]c(=O)ccc56)cc4)s3)c2)CC1` [Compound 2, 1-Methylpiperidin-4-yl (S)-2-hydroxy-2-(3-(5-((4-((((R)-2-hydroxy-2-(8-hydroxy-2-oxo-1,2-dihydroquinolin-5-yl)ethyl)amino)methyl)benzamido)-methyl)thiophen-2-yl)phenyl)-2-phenylacetate] gave an IC50 at Human β2 adrenoceptor below 0.3 nM.
On the same count and under the same terms, to `O=C(NCc1ccc(-c2cccc([C@](O)(C(=O)OC3CCN(Cc4ccccc4)CC3)c3ccccc3)c2)s1)c1ccc(CNC[C@H](O)c2ccc(O)c3[nH]c(=O)ccc23)cc1` [Compound 2F, 1-Benzylpiperidin-4-yl (S)-2-hydroxy-2-(3-(5-((4-((((R)-2-hydroxy-2-(8-hydroxy-2-oxo-1,2-dihydroquinolin-5-yl)ethyl)amino)methyl)-benzamido)methyl)thiophen-2-yl)phenyl)-2-phenylacetate] belongs below 0.3 nM.
Same read-out and setting: for `O=C(NCc1ccc(-c2cccc([C@](O)(C(=O)OC[C@H]3CCCN(Cc4ccccc4)C3)c3ccccc3)c2)s1)c1ccc(CNC[C@H](O)c2ccc(O)c3[nH]c(=O)ccc23)cc1` [Compound 2C, ((S)-1-Benzylpiperidin-3-yl)methyl (S)-2-hydroxy-2-(3-(5-((4-((((R)-2-hydroxy-2-(8-hydroxy-2-oxo-1,2-dihydroquinolin-5-yl)ethyl)amino)-methyl)benzamido)methyl)thiophen-2-yl)phenyl)-2-phenylacetate] the value was 0.3 to 3 nM.

Values taken from US10196386B2, “Compounds having muscarinic receptor antagonist and beta2 adrenergic receptor agonist activity” (priority 2016, dated 2019).
